Measured values: ChEMBL document CHEMBL3745645, “Synthesis, in vitro antitumor activity, dihydrofolate reductase inhibition, DNA intercalation and structure-activity relationship studies of 1,3,5-triazine analogues” (Bioorg Med Chem Lett, 2016)
Calls of active or inactive are those of the source. The rule behind the calls is not given here.

What was measured:
[1] = test system: Calf thymus DNA; test: Binding affinity to calf thymus DNA assessed as melting temperature by spectrophotometric analysis (reference value: 60 degC); type: nucleic-acid assay; settings: Bos taurus
[2] = test system: SR; test: Cytotoxicity against human SR cells at 10 uM after 48 hrs by SRB assay; type: functional
[3] = test system: T47D; test: Cytotoxicity against human T47D cells at 10 uM after 48 hrs by SRB assay; type: functional
[4] = test system: 786-0; test: Cytotoxicity against human 786-0 cells after 48 hrs by SRB assay; type: functional; settings: 786-0, 48 h, pooled result: one value given for 8 cell lines, strains, targets or settings
[5] = Cytotoxicity against human SF268 cells at 10 uM after 48 hrs by SRB assay; type: functional; settings: SF-268, 48 h, read-out: GI
[6] = test system: CCRF-CEM; test: Cytotoxicity against human CCRF-CEM cells at 10 uM after 48 hrs by SRB assay; type: functional
[7] = test system: MCF7; test: Cytotoxicity against human MCF7 cells at 10 uM after 48 hrs by SRB assay; type: functional; settings: MCF7, 48 h, read-out: GI
[8] = Cytotoxicity against human SF268 cells after 48 hrs by SRB assay; type: functional; settings: SF-268, 48 h, pooled result: one value given for 6 cell lines, strains, targets or settings
[9] = test system: Calf thymus DNA; test: Binding affinity to calf thymus DNA by UV-vis spectrometric analysis; type: nucleic-acid assay; settings: Bos taurus
[10] = test system: NCI-H226; test: Cytotoxicity against human NCI-H226 cells at 10 uM after 48 hrs by SRB assay; type: functional; settings: NCI-H226, 48 h, read-out: GI
[11] = test system: CCRF-CEM; test: Cytotoxicity against human CCRF-CEM cells after 48 hrs by SRB assay; type: functional; settings: for GI50 / TGI: pooled result: one value given for 6 cell lines, strains, targets or settings
[12] = test system: K562; test: Cytotoxicity against human K562 cells after 48 hrs by SRB assay; type: functional; settings: K562, 48 h
[13] = Cytotoxicity against human COLO205 cells after 48 hrs by SRB assay; type: functional; settings: COLO 205, 48 h, pooled result: one value given for 7 cell lines, strains, targets or settings
[14] = Cytotoxicity against human Caki1 cells at 10 uM after 48 hrs by SRB assay; type: functional; settings: CAKI-1, 48 h, read-out: GI
[15] = Cytotoxicity against human IGROV1 cells after 48 hrs by SRB assay; type: functional; settings: IGROV-1, 48 h, pooled result: one value given for 7 cell lines, strains, targets or settings
[16] = test system: A498; test: Cytotoxicity against human A498 cells at 10 uM after 48 hrs by SRB assay; type: functional; settings: A498, 48 h, read-out: GI
[17] = test system: SN12C; test: Cytotoxicity against human SN12C cells at 10 uM after 48 hrs by SRB assay; type: functional; settings: read-out: GI
[18] = test system: MDA-MB-468; test: Cytotoxicity against human MDA-MB-468 cells at 10 uM after 48 hrs by SRB assay; type: functional
[19] = Cytotoxicity against human OVCAR8 cells at 10 uM after 48 hrs by SRB assay; type: functional; settings: OVCAR-8, 48 h, read-out: GI
[20] = Cytotoxicity against human OVCAR5 cells at 10 uM after 48 hrs by SRB assay; type: functional; settings: OVCAR-5, 48 h, read-out: GI
[21] = Cytotoxicity against human RPMI8226 cells after 48 hrs by SRB assay; type: functional; settings: RPMI-8226, 48 h, read-out: LC50 (the source's name)
[22] = Cytotoxicity against human MOLT4 cells at 10 uM after 48 hrs by SRB assay; type: functional; settings: MOLT-4, 48 h, read-out: GI
[23] = Cytotoxicity against human PC3 cells after 48 hrs by SRB assay; type: functional; settings: PC-3, 48 h; for GI50 / TGI: pooled result: one value given for 2 cell lines, strains, targets or settings
[24] = Cytotoxicity against human SW620 cells at 10 uM after 48 hrs by SRB assay; type: functional; settings: SW-620, 48 h, read-out: GI
[25] = test system: SR; test: Cytotoxicity against human SR cells after 48 hrs by SRB assay; type: functional
[26] = test system: Calf thymus DNA; test: Binding affinity to calf thymus DNA by fluorescence spectrophotometric analysis; type: nucleic-acid assay; settings: Bos taurus
[27] = Cytotoxicity against human LOXIMVI cells after 48 hrs by SRB assay; type: functional; settings: LOX IMVI, pooled result: one value given for 9 cell lines, strains, targets or settings
[28] = test system: ACHN; test: Cytotoxicity against human ACHN cells at 10 uM after 48 hrs by SRB assay; type: functional; settings: read-out: GI
[29] = test system: Malme-3M; test: Cytotoxicity against human MALME-3M cells at 10 uM after 48 hrs by SRB assay; type: functional
[30] = test system: NCI-H522; test: Cytotoxicity against human NCI-H522 cells at 10 uM after 48 hrs by SRB assay; type: functional
[31] = Cytotoxicity against human HOP62 cells at 10 uM after 48 hrs by SRB assay; type: functional; settings: HOP-62, 48 h, read-out: GI
[32] = Cytotoxicity against human HL-60(TB) cells after 48 hrs by SRB assay; type: functional; settings: HL-60, 48 h, read-out: LC50 (the source's name)
[33] = test system: SK-MEL-5; test: Cytotoxicity against human SK-MEL-5 cells at 10 uM after 48 hrs by SRB assay; type: functional; settings: SK-MEL-5, 48 h, read-out: GI
[34] = Cytotoxicity against human SF539 cells at 10 uM after 48 hrs by SRB assay; type: functional; settings: SF-539, 48 h, read-out: GI
[35] = Cytotoxicity against human Hs 578T cells at 10 uM after 48 hrs by SRB assay; type: functional; settings: read-out: GI
[36] = Cytotoxicity against human COLO205 cells at 10 uM after 48 hrs by SRB assay; type: functional; settings: COLO 205, 48 h, read-out: GI
[37] = Cytotoxicity against human RXF393 cells at 10 uM after 48 hrs by SRB assay; type: functional; settings: RXF 393, 48 h, read-out: GI
[38] = Cytotoxicity against human OVCAR3 cells at 10 uM after 48 hrs by SRB assay; type: functional; settings: OVCAR-3, 48 h, read-out: GI
[39] = Cytotoxicity against human HCT116 cells at 10 uM after 48 hrs by SRB assay; type: functional; settings: HCT-116, 48 h, read-out: GI

With `Cc1nc2cc(Nc3nc(Nc4ccc(F)cc4)nc(N4CCN(C)CC4)n3)ccc2n1Cc1ccccc1` as the molecule, how does the Tm [1] read?
Its Tm is 65.6 °C.

What about the “growth inhibition (GI)” value [2] of the same molecule?
Its value is “Active”.

And the “growth inhibition (GI)” value [3]?
Its value is “Active”.

And the GI50 [4]?
The GI50 was 1.77 µM.

What about the LC50 (concentration killing 50% of cells) [4] of the same molecule?
The LC50 (concentration killing 50% of cells) was 9.66 µM.

And the TGI [4]?
The TGI was 3.81 µM.

What about the inhibition of growth at 10 µM [5] of the same molecule?
The inhibition of growth at 10 µM was 85.4%.

What about the “growth inhibition (GI)” value [6] of the same molecule?
The value was “Active”.

What about the inhibition of growth at 10 µM [7] of the same molecule?
Its inhibition of growth at 10 µM is 82.1%.

And the GI50 [8]?
The GI50 was 1.77 µM.

What about the LC50 (concentration killing 50% of cells) [8] of the same molecule?
Its LC50 (concentration killing 50% of cells) is 10.8 µM.

What about the TGI [8] of the same molecule?
The TGI was 3.94 µM.

What about the Ka [9] of the same molecule?
The Ka was 2.92 ×10⁴ /M.

What about the inhibition of growth at 10 µM [10] of the same molecule?
The inhibition of growth at 10 µM was 35%.

What about the LC50 [11] of the same molecule?
Its LC50 is 8.47 µM.

And the GI50 [11]?
The GI50 was 1.43 µM.

What about the TGI [11] of the same molecule?
The TGI was 4.04 µM.

And the LC50 [12]?
Its LC50 is 8.47 µM.

What about the GI50 [13] of the same molecule?
Its GI50 is 1.66 µM.

What about the LC50 [13] of the same molecule?
Its LC50 is 7.15 µM.

What about the TGI [13] of the same molecule?
The TGI was 3.44 µM.

And the inhibition of growth at 10 µM [14]?
The inhibition of growth at 10 µM was 81.4%.

What about the GI50 [15] of the same molecule?
The GI50 was 2.16 µM.

What about the LC50 (concentration killing 50% of cells) [15] of the same molecule?
Its LC50 (concentration killing 50% of cells) is 15.5 µM.

What about the TGI [15] of the same molecule?
The TGI was 5.25 µM.

What about the inhibition of growth at 10 µM [16] of the same molecule?
Its inhibition of growth at 10 µM is 70.8%.

And the inhibition of growth at 10 µM [17]?
The inhibition of growth at 10 µM was 65.1%.

And the “growth inhibition (GI)” value [18]?
Its value is “Active”.

And the inhibition of growth at 10 µM [19]?
Its inhibition of growth at 10 µM is 99.4%.

What about the inhibition of growth at 10 µM [20] of the same molecule?
The inhibition of growth at 10 µM was 57.1%.

And the CC50 [21]?
The CC50 was 8.47 µM.

What about the inhibition of growth at 10 µM [22] of the same molecule?
Its inhibition of growth at 10 µM is 98.9%.

What about the LC50 [23] of the same molecule?
Its LC50 is 20.5 µM.

What about the GI50 [23] of the same molecule?
The GI50 was 1.89 µM.

What about the TGI [23] of the same molecule?
The TGI was 4.38 µM.

What about the inhibition of growth at 10 µM [24] of the same molecule?
Its inhibition of growth at 10 µM is 84.4%.

What about the LC50 (concentration killing 50% of cells) [25] of the same molecule?
The LC50 (concentration killing 50% of cells) was 8.47 µM.

What about the Ka [26] of the same molecule?
The Ka was 3.36 ×10⁴ /M.

And the GI50 [27]?
Its GI50 is 1.81 µM.

What about the LC50 [27] of the same molecule?
The LC50 was 6.27 µM.

What about the TGI [27] of the same molecule?
Its TGI is 3.37 µM.

What about the inhibition of growth at 10 µM [28] of the same molecule?
Its inhibition of growth at 10 µM is 90.3%.

And the “growth inhibition (GI)” value [29]?
Its value is “Active”.

What about the “growth inhibition (GI)” value [30] of the same molecule?
Its value is “Active”.

And the inhibition of growth at 10 µM [31]?
Its inhibition of growth at 10 µM is 41.8%.

And the CC50 [32]?
Its CC50 is 8.47 µM.

And the inhibition of growth at 10 µM [33]?
Its inhibition of growth at 10 µM is 29.1%.

Which results are given for `Cc1nc2cc(Nc3nc(Nc4ccc(F)cc4)nc(-c4cccs4)n3)ccc2n1Cc1ccccc1`?
Tm [1]: 68.5 °C; inhibition of growth at 10 µM ([2]; read-out: GI): 82%; inhibition of growth at 10 µM ([3]; read-out: GI): 76.7%; GI50 [4]: 4.54 µM; LC50 (concentration killing 50% of cells) [4]: > 100 µM; TGI [4]: 43.5 µM; inhibition of growth at 10 µM [5]: 36.3%; inhibition of growth at 10 µM ([6]; read-out: GI): 72.8%; inhibition of growth at 10 µM [7]: 67.1%; inhibition of growth at 10 µM [34]: 40.1%; GI50 [8]: 4.66 µM; LC50 (concentration killing 50% of cells) [8]: 43 µM; TGI [8]: 14.4 µM; inhibition of growth at 10 µM [35]: 49.7%; Ka [9]: 3.19 ×10⁴ /M; inhibition of growth at 10 µM [10]: 35%; LC50 [11]: > 100 µM; GI50 [11]: 2.59 µM; TGI [11]: 9.49 µM; inhibition of growth at 10 µM [36]: 43.2%; LC50 [12]: > 100 µM; GI50 [13]: 3.23 µM; LC50 [13]: 25.3 µM; TGI [13]: 17 µM; inhibition of growth at 10 µM [14]: 29.8%; GI50 [15]: 8.83 µM; LC50 (concentration killing 50% of cells) [15]: 75.7 µM; TGI [15]: 27.3 µM; inhibition of growth at 10 µM [16]: 44%; inhibition of growth at 10 µM [17]: 29.7%; inhibition of growth at 10 µM ([18]; MDA-MB-468, 48 h, read-out: GI): 66.8%; inhibition of growth at 10 µM [19]: 63%; inhibition of growth at 10 µM [20]: 7.98%; CC50 [21]: > 100 µM; inhibition of growth at 10 µM [22]: 76.5%; LC50 [23]: > 100 µM; GI50 [23]: 5.2 µM; TGI [23]: 52.2 µM; inhibition of growth at 10 µM [37]: 74.1%; inhibition of growth at 10 µM [24]: 31.9%; LC50 (concentration killing 50% of cells) [25]: > 100 µM; Ka [26]: 4.21 ×10⁴ /M; GI50 [27]: 4.72 µM; LC50 [27]: 39 µM; TGI [27]: 19.7 µM; inhibition of growth at 10 µM [28]: 54.4%; inhibition of growth at 10 µM ([29]; read-out: GI): 22.4%; inhibition of growth at 10 µM [38]: 33.3%; inhibition of growth at 10 µM ([30]; NCI-H522, 48 h, read-out: GI): 46.5%; inhibition of growth at 10 µM [31]: 7.68%; CC50 [32]: > 100 µM; inhibition of growth at 10 µM [39]: 75.8%; inhibition of growth at 10 µM [33]: 23.5%
